From patent US10919851B2, “2-pyrrolidine phenylhydrazides antibacterial agents” (ABAC THERAPEUTICS, S.L, priority 2016, dated 2021)
Converted amounts (≈) assume the structure as drawn.

Tests used:
Staphylococcus aureus = test: MIC, standard microtiter dilution method (CLSI M07-A9); assay type: cell-based; details: Cation adjusted Mueller-Hinton Broth, 37° C., 24 hours, read-out: MIC S. aureus
Method: (§1) The products of the present invention were tested for their activity against Acinetobacter baumannii (A. baumannii) as well as against the following bacteria: Staphylococcus aureus (S. aureus), Streptococcus pneumoniae (S. pneumoniae), Enterococcus faecium (E. faecium), Pseudomonas aeruginosa (P. aeruginosa), Klebsiella pneumoniae (K. pneumoniae) and Escherichia coli (E. coli). Minimal inhibitory concentrations (MICs) were determined using a standard microtiter dilution method, according to the Clinical and Laboratory Standards Institute (CLSI) procedures, in particular according to […]-A9: “Methods for Dilution Antimicrobial Susceptibility Tests for Bacteria That Grow Aerobically; Approved Standard-Ninth Edition”. Briefly, compounds were dissolved with dimethyl sulfoxide (DMSO) at 12.8 mg/mL. Serial two-fold dilutions of compounds were performed in DMSO and 1 μl of each dilution were transferred into microtiter culture plates, followed by 100 μl of inoculated culture media to give a final microorganism concentration of 5×10^5 colony-forming units/mL. Plates were incubated at 37° C. for 24 hours and MICs determined as the lowest compound concentration that inhibited growth. Media used in determinations were Cation adjusted Mueller-Hinton Broth for all the microorganisms except for S. pneumoniae and E. faecium whose culture media were supplemented with 2.5% of lysed horse blood. Incubations were performed at air atmosphere except S. pneumoniae cultures that were incubated with 5% CO2 atmosphere.

Pseudomonas aeruginosa = test: as above; assay type: cell-based; details: Cation adjusted Mueller-Hinton Broth, 37° C., 24 hours, read-out: MIC P. aeruginosa
Method: as §1

Acinetobacter baumannii = test: as above; assay type: cell-based; details: Cation adjusted Mueller-Hinton Broth, 37° C., 24 hours
Method: as §1

Streptococcus pneumoniae = test: as above; assay type: cell-based; details: media with 2.5% lysed horse blood, 5% CO2, 37° C., 24 hours, read-out: MIC S. pneumoniae
Method: as §1

Klebsiella pneumoniae = test: as above; assay type: cell-based; details: Cation adjusted Mueller-Hinton Broth, 37° C., 24 hours, read-out: MIC K. pneumoniae
Method: as §1

Escherichia coli = test: as above; assay type: cell-based; details: Cation adjusted Mueller-Hinton Broth, 37° C., 24 hours
Method: as §1

Enterococcus faecium = test: as above; assay type: cell-based; details: media with 2.5% lysed horse blood, 37° C., 24 hours, read-out: MIC E. faecium
Method: as §1

MIC (Staphylococcus aureus) [µg/mL]	MIC (Pseudomonas aeruginosa) [µg/mL]	MIC (Acinetobacter baumannii) [µg/mL]	MIC (Streptococcus pneumoniae) [µg/mL]	MIC (Klebsiella pneumoniae) [µg/mL]	MIC (Escherichia coli) [µg/mL]	MIC (Enterococcus faecium) [µg/mL]	melting point [°C]	Structure (SMILES)
> 128	> 128	4 (≈ 15 µM)	> 128	> 128	> 128	> 128		NC(=O)N1CCC[C@@H]1C(=O)NNc1ccc(F)cc1 [Example 2, (R)-2-(2-(4-fluorophenyl)hydrazinecarbonyl)pyrrolidine-1-carboxamide]
> 128	> 128	4 (≈ 15 µM)	> 128	> 128	> 128	> 128		NC(=O)N1CCC[C@H]1C(=O)NNc1ccc(F)cc1 [Example 3, (S)-2-(2-(4-fluorophenyl) hydrazinecarbonyl) pyrrolidine-1-carboxamide]
> 128	> 128	2 (≈ 7.51 µM)	> 128	> 128	> 128	> 128	140 to 144	NC(=O)N1CCCC1C(=O)NNc1ccc(F)cc1 (stereo not drawn) [Example 4, 2-(2-(4-fluorophenyl)hydrazinecarbonyl)pyrrolidine-1-carboxamide]
> 128	> 128	2 (≈ 7.54 µM)	> 128	> 128	> 128	> 128		CC(=O)N1CCC[C@@H]1C(=O)NNc1ccc(F)cc1 [Example 14, (R)-1-acetyl-N′-(4-fluorophenyl)pyrrolidine-2-carbohydrazide]
> 128	> 128	1 (≈ 4.18 µM)	> 128	> 128	> 128	> 128		O=C(NNc1ccc(F)cc1)C1CCCN1O (stereo not drawn) [Example 15, N′-(4-fluorophenyl)-1-hydroxypyrrolidine-2-carbohydrazide]
> 128	> 128	2	> 128	> 128	> 128	> 128		Cl.N=C(N)N1CCCC1C(=O)NNc1ccc(F)cc1 (stereo not drawn) [Example 30, 2-(2-(4-fluorophenyl)hydrazinecarbonyl)pyrrolidine-1-carboximidamide hydrochloride]

The remaining lines, values behind:

Structure (SMILES)	MIC (Staphylococcus aureus) [µg/mL]	MIC (Pseudomonas aeruginosa) [µg/mL]	MIC (Acinetobacter baumannii) [µg/mL]	MIC (Streptococcus pneumoniae) [µg/mL]	MIC (Klebsiella pneumoniae) [µg/mL]	MIC (Escherichia coli) [µg/mL]	MIC (Enterococcus faecium) [µg/mL]	melting point [°C]
NC(=O)N1CCCC1C(=O)NNc1ccc(OC(F)(F)F)cc1 (stereo not drawn) [Example 7, 2-(2-(4-(trifluoromethoxy)phenyl)hydrazinecarbonyl)pyrrolidine-1-carboxamide]	128 (≈ 385 µM)	> 128	8 (≈ 24.1 µM)	> 128	> 128	> 128	> 128	
NC(=O)N1CCCC1C(=O)NNc1ccc(Cl)cc1F (stereo not drawn) [Example 9, 2-(2-(4-chloro-2-fluorophenyl)hydrazinecarbonyl)pyrrolidine-1-carboxamide]	> 128	> 128	8 (≈ 26.6 µM)	> 128	> 128	> 128	> 128	
COc1ccc(NNC(=O)C2CCCN2C(N)=O)cc1 (stereo not drawn) [Example 10, 2-(2-(4-methoxyphenyl)hydrazinecarbonyl)pyrrolidine-1-carboxamide]	> 128	> 128	2 (≈ 7.19 µM)	> 128	> 128	> 128	> 128	
NC(=O)N1CCCC1C(=O)NNc1ccc2c(c1)OCCO2 (stereo not drawn) [Example 11, 2-(2-(2,3-dihydrobenzo[b][1,4]dioxin-6-yl) hydrazinecarbonyl)pyrrolidine-1-carboxamide]	> 128	> 128	8 (≈ 26.1 µM)	> 128	> 128	> 128	> 128	
CN1CCCC1(C)C(=O)NNc1ccc(F)cc1 (stereo not drawn) [Example 16, N′-(4-fluorophenyl)-1,2-dimethylpyrrolidine-2-carbohydrazide]	> 128	> 128	0.25 (≈ 0.995 µM)	> 128	> 128	> 128	> 128	
Cl.O=C(NNc1ccc(F)cc1)C1CCCN1C(=O)N1CCNCC1 (stereo not drawn) [Example 18, N′-(4-fluorophenyl)-1-(piperazine-1-carbonyl)pyrrolidine-2-carbohydrazide hydrochloride]	128	> 128	8	> 128	> 128	> 128	> 128	
O=C(NNc1ccc(F)cc1)[C@@H]1CCCN1CC1CC1 [Example 25, (S)-1-(cyclopropylmethyl)-N′-(4-fluorophenyl)pyrrolidine-2-carbohydrazide]	> 128	> 128	0.25 (≈ 0.901 µM)	> 128	> 128	> 128	> 128	
CN1CC2CC2C1C(=O)NNc1ccc(F)cc1 (stereo not drawn) [Example 26, N′-(4-fluorophenyl)-3-methyl-3-azabicyclo[3.1.0]hexane-2-carbohydrazide]	> 128	> 128	0.25 (≈ 1 µM)	> 128	> 128	> 128	> 128	
